Measured values taken from patent US8445636B2, “Antimicrobial and anticancer lipopeptides” (Yeda Research & Development Co. Ltd., priority 2003, dated 2013).
≈ marks a conversion by molar mass, not a printed value. Where two headings read alike, the source gives them in different places. Non-standard residues stand in square brackets, D forms with d. Residues, ends and D or L forms follow the SMILES beside them. *: point of attachment. Palmitoyl = CCCCCCCCCCCCCCCC(=O)*; Myristoyl = CCCCCCCCCCCCCC(=O)*; Lauroyl = CCCCCCCCCCCC(=O)*

Key:
Format in all cases: cell-based
[1] = system: Staphylococcus aureus ATCC 6538P
Outline: (§1)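 MIC = lowest concentration with 100% growth inhibition, judged from A600 after 18-20 h incubation at 37° C. Bacteria at 1×10^6 CFU/ml in LB (pH 7.4 unless pH 5.5 stated) combined with equal volume of serially 2-fold diluted lipopeptide.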

[2] = system: M. laleus; details: Table 3, short lipopeptides; pH 7.4
Outline: as §1

[3] = system: Pseudomonas aeruginosa ATCC 27853
Outline: as §1

[4] = system: Cryptococcus neoformans ATCC MYA-422; experiment: microbe, parasite or virus in culture; details: ATCC MYA-422, pH 7.4; for MIC: read-out: Minimal Inhibitory Concentration, Cyrptococcus neoformans (ATCC MYA-422)
[5] = system: Candida albicans ATCC 10231; experiment: microbe, parasite or virus in culture
Outline: (§2)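 In this assay, each strain, prepared at 1×10^4 CFU/ml before mixing, met serial twofold peptide dilutions in RPMI 1640 buffered with 0.165 M MOPS. Unless noted, pH was 7.4; a pH 5.5 condition was also run. After 24-48 h incubation (35 °C, agitated), wells were scored at 620 nm for total inhibition.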

[6] = system: Aspergillus fumigatus ATCC 26430; experiment: microbe, parasite or virus in culture
[7] = system: E. coli D21
[8] = system: Acinetobacter baumannii ATCC 19606
Outline: as §1

[9] = system: Escherichia coli ATCC 25922
Outline: as §1

[10] = system: Enterobacter cloacae ATCC 49141; details: ATCC 49141, pH 7.4
Outline: as §1

[11] = system: vancomycin-resistant Enterococcus faecium (VRE) ATCC 700221; details: ATCC 700221, pH 7.4
Outline: as §1

[12] = system: Enterococcus faecalis ATCC 29212; details: ATCC 29212, pH 7.4
Outline: as §1

[13] = system: methicilin-resistant Staphylococcus aureus (MRSA) ATCC 700698; details: ATCC 700698, pH 7.4
Outline: as §1

[14] = system: Cryptococcus neoformans ATCC 66031; experiment: microbe, parasite or virus in culture
Outline: as §2

[15] = system: E. aerogenes ATCC 35029; details: ATCC 35029, pH 7.4
Outline: as §1

[16] = system: E. coli ATCC 35218; details: ATCC 35218, pH 7.4
Outline: as §1

[17] = Cytotoxicity, XTT viability, non-cancer cells; details: mouse, non-cancer cell line, 24 h incubation, read-out: LC50, 3T3
Protocol: Prostate cancer cell lines (CL1 and 22RV1; ATCC, USA) were grown in RPMI-1640 supplemented with 10% FCS (Biological Industries, Beit Haemek, Israel). N1H-3T3 mouse fibroblast cell line (ATCC, USA) was grown in DMEM supplemented with 10% bovine serum. To test cytotoxicity against the cancer cells, aliquots of medium containing 1×10^4 cells were distributed into a 96-well plate (Falcon). After one day, the media were replaced with 90 μl of fresh media and 10 μl of a solution containing different concentrations of the peptides. The plate was then incubated for 24 h before adding to each well 50 μl of XTT reaction solution (Biological Industries, Beit Haemek, Israel); viability was determined as previously described (Papo et al., (2003) J. Biol. Chem. 278:21018-23). The LC50 (concentration at which 50% of the cells die) for each peptide was obtained from the dose-dependent cell viability curves.

[18] = ATCC 10231, pH 7.4, read-out: Minimal Inhibitory Concentration, Candida Albicans (ATCC 10231)
[19] = ATCC 26430, pH 7.4, read-out: Minimal Inhibitory Concentration, Aspergillus Fomigatus (ATCC 26430)
[20] = Table 3, short lipopeptides, pH 7.4

## CCCCCCCCCCCCCCCC(=O)N[C@@H](CCCCN)C(=O)NCC(=O)NCC(=O)N[C@H](CCCCN)C(N)=O [PA-KGGK, Palmitoyl-Lys-Gly-Gly-D-Lys-NH2] (Palmitoyl-KGG[dK]-NH2)
[1]; ATCC 6538, pH 7.4
  Minimal Inhibitory Concentration, S. aureus ATCC 6538P: 50 µM
[2]
  Minimal Inhibitory Concentration, M. laleus: 3.12 µM
[3]; ATCC 27853, pH 7.4
  Minimal Inhibitory Concentration, P. aeruginosa ATCC 27853: 12.5 µM
[4]
  MIC: 1.56 µM (≈ 0.976 µg/mL)
[5]; [18]
  MIC: 12.5 µM (≈ 7.82 µg/mL)
[6]; [19]
  MIC: 6.25 µM (≈ 3.91 µg/mL)
[7]; D21, pH 7.4
  Minimal Inhibitory Concentration, E. coli-D21: 25 µM

## CCCCCCCCCCCCCCCC(=O)N[C@@H](CCCCN)C(=O)N[C@H](CCCCN)C(N)=O [PA-KK, Palmitoyl-Lys-D-Lys-NH2]
[8]; ATCC 19606, pH 7.4
  Minimal Inhibitory Concentration, A. baumannii ATCC 19606: 100 µM
[1]; ATCC 6538, pH 7.4
  Minimal Inhibitory Concentration, S. aureus ATCC 6538P: 6.25 µM
[2]
  Minimal Inhibitory Concentration, M. laleus: 3.12 µM
[3]; ATCC 27853, pH 7.4
  Minimal Inhibitory Concentration, P. aeruginosa ATCC 27853: 100 µM
[4]
  MIC: 2.5 µM (≈ 1.28 µg/mL)
[5]; [18]
  MIC: 12.5 µM (≈ 6.4 µg/mL)
[6]; [19]
  MIC: 6.25 µM (≈ 3.2 µg/mL)
[7]; D21, pH 7.4
  Minimal Inhibitory Concentration, E. coli-D21: 6.25 µM

## CCCCCCCCCCCCCCCC(=O)N[C@@H](CCCCN)C(=O)N[C@@H](CC(C)C)C(=O)N[C@H](CC(C)C)C(=O)N[C@@H](CCCCN)C(N)=O [PA-KLLK, Palmitoyl-Lys-Leu-D-Leu-Lys-NH2] (Palmitoyl-KL[dL]K-NH2)
[1]; ATCC 6538, pH 7.4
  Minimal Inhibitory Concentration, S. aureus ATCC 6538P: 3.12 µM
[2]
  Minimal Inhibitory Concentration, M. laleus: 3.12 µM
[3]; ATCC 27853, pH 7.4
  Minimal Inhibitory Concentration, P. aeruginosa ATCC 27853: 100 µM
[4]
  MIC: 1.56 µM (≈ 1.15 µg/mL)
[5]; [18]
  MIC: 6.25 µM (≈ 4.61 µg/mL)
[6]; [19]
  MIC: 3.125 µM (≈ 2.31 µg/mL)
[7]; D21, pH 7.4
  Minimal Inhibitory Concentration, E. coli-D21: 100 µM

## CCCCCCCCCCCCCC(=O)N[C@@H](CCCCN)C(=O)NCC(=O)NCC(=O)NCC(=O)N[C@@H](CCCCN)C(=O)NCC(=O)NCC(=O)NCC(=O)N[C@@H](CCCCN)C(=O)NCC(=O)NCC(=O)N[C@@H](CCCCN)C(N)=O [lipopeptide 3, (CH3—(CH2)12—CO—)-Lys-Gly-Gly-Gly-Lys-Gly-Gly-Gly-Lys-Gly-Gly-Lys-NH2] (Myristoyl-KGGGKGGGKGGK-NH2)
[8]; ATCC 19606, pH 7.4
  Minimal Inhibitory Concentration, A. Baumaannii: 12.5 µM
[9]; ATCC 25922, pH 7.4
  Minimal Inhibitory Concentration, E. coli: 6.25 µM
[10]
  Minimal Inhibitory Concentration, E. cloacae: 6.25 µM
[11]
  Minimal Inhibitory Concentration, E. faecium (VRE): 12.5 µM
[12]
  Minimal Inhibitory Concentration, E. faecalis: 6.25 µM
[1]; ATCC 6538, pH 7.4
  Minimal Inhibitory Concentration, S. aureus: 6.25 µM
[3]; ATCC 27853, pH 7.4
  Minimal Inhibitory Concentration, P. Aeruginosa: 6.25 µM
[13]
  Minimal Inhibitory Concentration, S. aureus (MRSA): 6.25 µM
[14]; ATCC 66031, pH 7.4
  Minimal Inhibitory Concentration, C. neoformans ATCC 66031: 3.125 µM
[5]; ATCC 10231, pH 7.4
  Minimal Inhibitory Concentration, C. albicans ATCC 10231: 3.125 µM
[6]; ATCC 26430, pH 7.4
  Minimal Inhibitory Concentration, A. fumigatus ATCC 26430: 6.25 µM

## CCCCCCCCCCCC(=O)N[C@H](CC(C)C)C(=O)N[C@@H](CCCCN)C(=O)N[C@@H](CCCCN)C(=O)N[C@H](CC(C)C)C(=O)N[C@H](CC(C)C)C(=O)N[C@@H](CCCCN)C(=O)N[C@@H](CCCCN)C(=O)N[C@H](CC(C)C)C(=O)N[C@H](CC(C)C)C(=O)N[C@@H](CCCCN)C(=O)N[C@@H](CCCCN)C(=O)N[C@H](CC(C)C)C(N)=O [lipopeptide 22, (CH3-(CH2)10-CO-)-D-Leu-Lys-Lys-D-Leu-D-Leu-Lys-Lys-D-Leu-D-Leu-Lys-Lys-D-Leu-NH2] (Lauroyl-[dL]KK[dL][dL]KK[dL][dL]KK[dL]-NH2)
[8]; ATCC 19606, pH 5.5
  Minimal inhibitory concentrations, A. baumannii ATCC 19606: 25 µM (≈ 41.2 µg/mL)
[8]; ATCC 19606, pH 7.4
  Minimal inhibitory concentrations, A. baumannii ATCC 19606: 25 µM (≈ 41.2 µg/mL)
[9]; ATCC 25922, pH 5.5
  Minimal inhibitory concentrations, E. Coli ATCC 25922: 50 µM (≈ 82.4 µg/mL)
[9]; ATCC 25922, pH 7.4
  Minimal inhibitory concentrations, E. Coli ATCC 25922: 75 µM (≈ 124 µg/mL)
[15]
  Minimal Inhibitory Concentration, E. aerogenes ATCC 35029: 50 µM
[1]; ATCC 6538, pH 5.5
  Minimal inhibitory concentrations, S. aureus II ATCC 6538P: >100 µM
[1]; ATCC 6538, pH 7.4
  Minimal Inhibitory Concentration, S. aureus ATCC 6538P: 12.5 µM
  Minimal inhibitory concentrations, S. aureus II ATCC 6538P: 3.125 µM (≈ 5.15 µg/mL)
[3]; ATCC 27853, pH 5.5
  Minimal inhibitory concentrations, P. Aeruginosa ATCC 27853: 12.5 µM (≈ 20.6 µg/mL)
[3]; ATCC 27853, pH 7.4
  Minimal Inhibitory Concentration, P. aeruginosa ATCC 27853: 25 µM
  Minimal inhibitory concentrations, P. Aeruginosa ATCC 27853: 25 µM (≈ 41.2 µg/mL)
[16]
  Minimal Inhibitory Concentration, E. coli ATCC 35218: 25 µM
[4]
  Minimal Inhibitory Concentration, C. neoformans ATCC MYA-422: 0.78 µM
[14]; ATCC 66031, pH 5.5, read-out: Minimal inhibitory concentrations, C. Neofor. With serum
  MIC: 1.56 µM (≈ 2.57 µg/mL)
[14]; ATCC 66031, pH 5.5, read-out: Minimal inhibitory concentrations, C. Neofor. Without serum
  MIC: <0.78 µM
[14]; ATCC 66031, pH 7.4, read-out: Minimal inhibitory concentrations, C. Neofor. With serum
  MIC: <0.78 µM
[14]; ATCC 66031, pH 7.4, read-out: Minimal inhibitory concentrations, C. Neofor. Without serum
  MIC: <0.78 µM
[5]; ATCC 10231, pH 5.5, read-out: Minimal inhibitory concentrations, C. Albicans With serum
  MIC: >100 µM
[5]; ATCC 10231, pH 5.5, read-out: Minimal inhibitory concentrations, C. Albicans Without serum
  MIC: 100 µM (≈ 165 µg/mL)
[5]; ATCC 10231, pH 7.4
  Minimal Inhibitory Concentration, C. albicans ATCC 10231: 12.5 µM
[5]; ATCC 10231, pH 7.4, read-out: Minimal inhibitory concentrations, C. Albicans With serum
  MIC: 100 µM (≈ 165 µg/mL)
[5]; ATCC 10231, pH 7.4, read-out: Minimal inhibitory concentrations, C. Albicans Without serum
  MIC: 3.125 µM (≈ 5.15 µg/mL)
[17]
  CC50 at 24 h: 50 µM
[6]; ATCC 26430, pH 5.5, read-out: Minimal inhibitory concentrations, A. Fumig. With serum
  MIC: 100 µM (≈ 165 µg/mL)
[6]; ATCC 26430, pH 5.5, read-out: Minimal inhibitory concentrations, A. Fumig. Without serum
  MIC: 75 µM (≈ 124 µg/mL)
[6]; ATCC 26430, pH 7.4
  Minimal Inhibitory Concentration, A. fumigatus ATCC 26430: 6.25 µM
[6]; ATCC 26430, pH 7.4, read-out: Minimal inhibitory concentrations, A. Fumig. With serum
  MIC: 50 µM (≈ 82.4 µg/mL)
[6]; ATCC 26430, pH 7.4, read-out: Minimal inhibitory concentrations, A. Fumig. Without serum
  MIC: 12.5 µM (≈ 20.6 µg/mL)
[7]; D21, pH 5.5
  Minimal inhibitory concentrations, E. Coli D21: 25 µM (≈ 41.2 µg/mL)
[7]; D21, pH 7.4
  Minimal inhibitory concentrations, E. Coli D21: 25 µM (≈ 41.2 µg/mL)

## Gentamycin [reference compound]
[8]; [20]
  Minimal Inhibitory Concentration, A. baumannii ATCC 19606: 3.12 µM
[8]; Table 6, pH 7.4
  Minimal inhibitory concentrations, A. baumannii ATCC 19606: 12.5 µM
[8]; Table 7, pH 5.5
  Minimal inhibitory concentrations, A. baumannii ATCC 19606: 12.5 µM
[9]; Table 6, pH 7.4
  Minimal inhibitory concentrations, E. Coli ATCC 25922: 6.25 µM
[9]; Table 7, pH 5.5
  Minimal inhibitory concentrations, E. Coli ATCC 25922: 12.5 µM
[1]; [20]
  Minimal Inhibitory Concentration, S. aureus ATCC 6538P: 6.25 µM
[1]; Table 6, pH 7.4
  Minimal inhibitory concentrations, S. aureus II ATCC 6538P: 12.5 µM
[1]; Table 7, pH 5.5
  Minimal inhibitory concentrations, S. aureus II ATCC 6538P: 25 µM
[2]
  Minimal Inhibitory Concentration, M. laleus: 0.78 µM
[3]; [20]
  Minimal Inhibitory Concentration, P. aeruginosa ATCC 27853: 0.78 µM
[3]; Table 6, pH 7.4
  Minimal inhibitory concentrations, P. Aeruginosa ATCC 27853: 12.5 µM
[3]; Table 7, pH 5.5
  Minimal inhibitory concentrations, P. Aeruginosa ATCC 27853: 12.5 µM
[7]; [20]
  Minimal Inhibitory Concentration, E. coli-D21: 1.56 µM
[7]; Table 6, pH 7.4
  Minimal inhibitory concentrations, E. Coli D21: 12.5 µM
[7]; Table 7, pH 5.5
  Minimal inhibitory concentrations, E. Coli D21: 12.5 µM
